PubChem BioAssay AID1996
≈ marks a conversion by molar mass, not a printed value.

Settings: buffer; pH 7.4; 200.0 µM

Row | Structure (SMILES) | solubility kinetic
1 | COc1ccc(NC(=O)COC(=O)CCSc2ccccc2)cc1OC | 55.5 µg/mL (≈ 148 µM)
2 | Cc1ccc(NC(=O)COC(=O)C2CC(=O)N(Cc3ccccc3)C2)cc1F (stereo not given) | 46.8 µg/mL (≈ 122 µM)
3 | Cc1ccc(S(=O)(=O)/C(=C\N(C)C)c2cnc(Cl)s2)cc1 | > 51.4 µg/mL
4 | CCN(c1cccc(C)c1)S(=O)(=O)c1csc(C(N)=O)c1 | > 48.7 µg/mL
5 | Cc1nc(SCc2ccc(F)cc2)c2oc3ccccc3c2n1 | < 0.3 µg/mL
6 | O=C(c1cc2ccccc2oc1=O)N1CCCCCCC1 | 42.5 µg/mL (≈ 149 µM)
7 | COc1ccc(CCNC(=O)C2CCN(C(=O)c3ccccc3)CC2)cc1 | 49.2 µg/mL (≈ 134 µM)
8 | CCC(=O)N1CCN(c2ccc(NC(=O)c3ccc4ccccc4c3)cc2)CC1 | < 0.3 µg/mL
9 | COC(=O)CC(NC(=O)C1CC1)c1ccc2c(c1)OCO2 (stereo not given) | > 43.7 µg/mL
10 | O=C1OCC2=C1C(c1ccccc1)CC(=O)N2c1ccc(F)cc1 (stereo not given) | > 48.5 µg/mL
11 | CCC(=NCC1CCCO1)c1c(O)n(-c2ccccc2C)c(=O)[nH]c1=O (stereo not given) | > 53.6 µg/mL
12 | O=C(NC1CCCC1)c1cc(-c2ccccc2Cl)on1 | 2.2 µg/mL (≈ 7.57 µM)
13 | Cc1ccc(NC(=O)Nc2ccc3c(c2)CCC3)cc1C | < 0.3 µg/mL
14 | Cc1onc(C(=O)N2CCN(c3ccccc3)CC2)c1[N+](=O)[O-] | > 47.4 µg/mL
15 | N#Cc1cccc(S(=O)(=O)NCc2nnc3ccccn23)c1 | > 47 µg/mL
16 | Cc1ccc2nc(-c3ccccc3)oc(=O)c2c1 | 0.9 µg/mL (≈ 3.79 µM)
17 | O=C(Nc1cccc(S(=O)(=O)NCc2ccco2)c1)c1ccc(Cl)cc1 | 3 µg/mL (≈ 7.68 µM)
18 | CC(=O)c1cccc(NCC(=O)c2ccc(C)c([N+](=O)[O-])c2)c1 | 13.7 µg/mL (≈ 43.9 µM)
19 | Clc1nc(NC2CCCC2)nc(N2CCOCC2)n1 | 5.1 µg/mL (≈ 18 µM)
20 | S=C(NCc1ccncc1)Nc1ccc(Br)cc1 | > 48.3 µg/mL

Row | Structure (SMILES) | solubility kinetic
21 | c1ccc(CNc2nc(-c3cccnc3)nc3ccccc23)cc1 | 13.6 µg/mL (≈ 43.5 µM)
22 | CCCn1c(SCC(=O)NC2CCCC2)nnc1-c1cccnc1 | > 51.8 µg/mL
23 | Cc1ccc(NC(=O)NCC2CC2(Cl)Cl)cc1 (stereo not given) | 9.1 µg/mL (≈ 33.3 µM)
24 | CN1CCN(C(=O)c2cc3sc4ccccc4c3s2)CC1 | > 47.5 µg/mL
25 | Cc1cccc(C(=O)OCC(=O)NC(=O)c2ccccc2)c1O | < 0.7 µg/mL
26 | COc1ccc(NC(=O)CN2C(=O)NC3(CCCCCC3)C2=O)cc1Cl | 13.8 µg/mL (≈ 36.3 µM)
27 | COc1ccc(C(C)NC(=O)CCc2ccccc2)cc1 (stereo not given) | 40.8 µg/mL (≈ 144 µM)
28 | NC(CO)(CO)CO.O=C(c1ccccc1)c1ccc2n1CCC2C(=O)O (stereo not given) | > 56.5 µg/mL
29 | CCCn1cnc2scc(-c3ccc(OC)cc3)c2c1=O | 13.9 µg/mL (≈ 46.3 µM)
30 | CNc1nc(-c2ccccc2)cc(C)c1S(C)(=O)=O | 22.8 µg/mL (≈ 82.5 µM)
31 | Cc1cc(C)c(OCCN2CCOCC2)c(Cl)c1 | 26.6 µg/mL (≈ 98.6 µM)
32 | COC(=O)c1ccccc1N1CCS(=O)(=O)CC1 | > 40.4 µg/mL
33 | CNC(=O)COC(=O)/C=C/c1ccco1 | > 31.4 µg/mL
34 | O=C(NCCc1ccccc1Cl)C1CC(=O)N(C2CCCCC2)C1 (stereo not given) | > 52.3 µg/mL
35 | CN(Cc1ccccc1)c1ncnc2sccc12 | 32.4 µg/mL (≈ 127 µM)
36 | Cc1ccc(C)c(NC(=O)CCN2CCCC(C)C2)c1 (stereo not given) | 38.5 µg/mL (≈ 140 µM)
37 | CS(=O)(=O)N(CC(=O)N1CCCC1)c1ccccc1Br | > 54.2 µg/mL
38 | CC(NC(=O)COC(=O)Cc1ccc(Cl)cc1)c1ccccc1 (stereo not given) | > 49.8 µg/mL
39 | Cc1cc2c(cc1S(=O)(=O)N(C)c1ccccc1)n(C)c(=O)n2C | > 51.8 µg/mL
40 | CC(C)C(=O)Nc1ccc(NC(=O)CCc2ccccc2)cn1 | > 46.7 µg/mL

Row | Structure (SMILES) | solubility kinetic
41 | Cc1cc(C=O)c(C)n1C(C)C | 23 µg/mL (≈ 139 µM)
42 | CCCCC(=O)Nc1ccc(C(=O)NCCN2CCOCC2)cc1 | > 50 µg/mL
43 | Cc1ccc(S(=O)(=O)NCCNc2ccc(Br)c(C)c2)cc1 | 0.6 µg/mL (≈ 1.57 µM)
44 | COc1ccc(C(C#N)c2nc3ccccc3nc2Cl)cc1 (stereo not given) | < 0.2 µg/mL
45 | COc1cc(OC)cc(C(=O)Nc2ccc(C(=O)Nc3ccccc3OC)cc2)c1 | 6.4 µg/mL (≈ 15.7 µM)
46 | Cc1ccc(C)c(NS(=O)(=O)c2ccc3oc(=O)ccc3c2)c1 | 1.4 µg/mL (≈ 4.25 µM)
47 | CNC(=S)Nc1cccc([N+](=O)[O-])c1 | > 31.7 µg/mL
48 | CC(=O)c1ccc(OCCCC(=O)Nc2cccc(S(=O)(=O)N3CCOCC3)c2)cc1 | 56 µg/mL (≈ 125 µM)
49 | COc1ccc(CN=C(N)N=C(N)N)cc1Cl.Cl | > 43.8 µg/mL
50 | O=C(O)C1CCN(c2ccccc2[N+](=O)[O-])CC1 | > 37.5 µg/mL
51 | COc1ccc2c(c1)CCc1c(C(=O)NCC(C)C)noc1-2 | 1.5 µg/mL (≈ 4.99 µM)
52 | CCCCCC(=O)Nc1ccc(-c2csc(N)n2)cc1 | 5.9 µg/mL (≈ 20.4 µM)
53 | CC(C)C(=O)Nc1ccc(N2CCOCC2)c(S(=O)(=O)Nc2ccccc2Cl)c1 | 2.8 µg/mL (≈ 6.39 µM)
54 | COc1ccc(/C=C/C(=O)OCC(=O)NC(=O)NC(C)(C)C)cc1 | < 0.4 µg/mL
55 | C[n+]1c(-c2ccccc2)sc([S-])c1-c1ccccc1 | 36 µg/mL (≈ 127 µM)
56 | Cn1cccc1/C=N\NC(=O)c1cncc(Br)c1 | > 46.1 µg/mL
57 | Cc1ccc(NS(=O)(=O)N2CCOCC2)c(C)c1 | > 40.6 µg/mL
58 | CN(C)c1nc(C(=O)O)nc(N2CCOCC2)n1 | 36.2 µg/mL (≈ 143 µM)
59 | COc1ccc(Cl)cc1NC(=S)NCCc1ccc(F)cc1 | 13.7 µg/mL (≈ 40.4 µM)
60 | CCOC(=O)c1sc(-c2cccc(C(F)(F)F)c2)nc1O | 36.5 µg/mL (≈ 115 µM)
